These results are taken from patent US11180510B2, “Xanthine derivatives and uses thereof as inhibitors of bromodomains of BET proteins” (Centre national de la recherche scientifique, priority 2017, dated 2021).

Brd3(BD1), sequence (Q15059 34-140 limits assumed): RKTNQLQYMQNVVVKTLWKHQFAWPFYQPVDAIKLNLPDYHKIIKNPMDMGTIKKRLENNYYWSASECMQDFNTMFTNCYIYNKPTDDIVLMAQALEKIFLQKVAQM
T5 sequence (Q15059 306-415 limits assumed): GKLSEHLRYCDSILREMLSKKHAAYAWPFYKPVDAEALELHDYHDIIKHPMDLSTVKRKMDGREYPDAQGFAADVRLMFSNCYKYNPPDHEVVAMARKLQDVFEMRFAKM

The first test has as its target T1, BRD4(BD1) (Homo sapiens, UniProt O60885). In words: Isothermal Titration Calorimetry. Type of test: binding. The note with it: ITC; read-out: Binding affinity (Kd) to BRD4(1) by Isothermal Titration Calorimetry. As for the experimental part: FIG. 1. Isothermal Titration Calorimetry (ITC) of 43c. Thermogram (top) and non-linear least squares fit model of the integrated data (bottom) at 15° C. of Brd4 (BD1) […] as a function of the molar ratio of ligand to the protein.
ITC was used to evaluate the thermodynamics parameters of the binding between BRD4 (BD1) and the selected compounds. Titrations were carried out on a MicroCal ITC200 microcalorimeter (GE Healthcare, Piscataway, N.J.). Each experiment was designed using a titrant concentration (protein in the syringe generally between 100 and 400 μM) set 10 to 15 times the analyte concentration (compound in the cell generally between 10 and 40 μM) and using 13 injections at 25° C. A first small injection (generally 0.2 μL) was included in the titration protocol in order to remove air bubbles trapped in the syringe prior titration. Raw data were scaled after setting the zero to the titration saturation heat value. Integrated raw ITC data were fitted to a one site non-linear least squares fit model using the MicroCal Origin plugin as implemented in Origin 7 (Origin Lab). Finally, ΔG and TΔS values were calculated from the fitted ΔH and KA values using the equations ΔG=−R.T.inKA and ΔG=ΔH−TΔS.
`O=C1CCCc2cc(S(=O)(=O)NCC3CCC(C(=O)NCCc4cccs4)CC3)ccc2N1` (single isomer, unassigned) [Compound 5c]: the Kd worked out at 2.8 µM.
On the same count and under the same terms, with `O=C1CCCc2cc(S(=O)(=O)C3CCC(C(=O)NCCc4ccccn4)CC3)ccc2N1` (centres unmarked) [Compound 7a] the figure was 3.5 µM; with `O=C1CCCc2cc(S(=O)(=O)NCC3CCC(C(=O)NCCc4ccccn4)CC3)ccc2N1` (centres unmarked) [Compound 7b], 8.8 µM.
Same read-out and setting: with `Cc1noc(C)c1CCNC(=O)C1CCC(CNS(=O)(=O)c2ccc3c(c2)CCCC(=O)N3)CC1` (centres unmarked) [Compound 9a] the figure was 3.4 µM.

For a further test, the target named is T2, Brd4(BD2) (Homo sapiens, UniProt O60885).
T2 construct: GST tagged bromodomain proteins were purchased from BPS Bioscience; purchased BPS Bioscience
The experiment in a line: HTRF BET selectivity profile, Brd4(BD2). It counts as binding.
Conditions: not given
The procedure: (§1) HTRF assays were performed in white 384 Well Small Volume™ HiBase Polystyrene Microplates (Greiner) with a total working volume of 20 μL. Compounds were dispensed, with 100 nL per well (0.5% final DMSO), from a concentration stock of 10 mM in 100% DMSO and with serial DMSO dilutions, using an Echo® 550 robot from the Access Labcyte platform (Labcyte) and based on the transfer of liquid by acoustic wave. Then, 19.5 μL of buffer is added, using a Multidrop Combi (Thermo Fisher Scientific). Finally, for each assay, 200 nL of master mix (protein+donor+acceptor) and 200 nL of peptide Is added in the assay wells according to the final concentration and buffer described in Table 3, using the Echo® 550 robot (Labcyte). The IC50 measurements were performed in triplicates (Table 2 and 3). All HTRF reagents (donor and acceptor) were purchased from CisBio Bioassays and reconstituted according to the supplier protocols. The peptide was purchased from Genic Bio Synthetic. The BRD4(1) protein was produced and purified in the laboratory. HTRF signals were measured, after a final incubation (3 h or 6 h or overnight at room temperature or 4° C., according to the bromodomain), using a PHERAstar FS (BMG Labtech) with an excitation filter at 337 nm and fluorescence wavelength measurement at 620 and 665 nm, an integration delay of 60 μs and an integration time of 500 μs. Results were analyzed with a two-wavelengths signal ratio: [intensity (665 nm)/intensity (620 nm)]*104.
(§2) Percentage of inhibition was calculated using the following equation: % inhibition=[(compound signal)−(min signal)]/[(max signal)−(min signal)]*100, where ‘max signal’ is the signal ratio with the compound vehicle alone (DMSO) and ‘min signal’ the signal ratio without peptide.
(§3) Selectivity profiles of bromodomain inhibitors were performed as described in HTRF screen section. […] HTRF detection reagents (EPIgeneous™ Binding Domain kits) were purchased from Cisbio Bioassays and used according to supplier's protocol. GST tagged bromodomain proteins were purchased from BPS Bioscience and histone peptide from Genic Bio Synthetic.
As for `O=C1CCCc2cc(S(=O)(=O)C3CCC(C(=O)NCCc4ccccn4)CC3)ccc2N1` (centres unmarked) [Compound 7a], inhibition was half-maximal at 20.8 µM (IC50).

The target in another test is T3, Brd2(BD2) (Homo sapiens, UniProt P25440).
T3 construct: GST tagged bromodomain proteins were purchased from BPS Bioscience; purchased BPS Bioscience
T3 sequence (P25440 344-453 limits assumed): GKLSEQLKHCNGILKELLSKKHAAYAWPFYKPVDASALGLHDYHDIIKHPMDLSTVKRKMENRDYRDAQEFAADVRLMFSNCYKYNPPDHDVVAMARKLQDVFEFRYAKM
The experiment in a line: HTRF BET selectivity profile, Brd2(BD2). The note with it: read-out: Brd2(BD2) IC50. Type of test: binding. As for the experimental part:
(§4) HTRF assays were performed in white 384 Well Small Volume™ HiBase Polystyrene Microplates (Greiner) with a total working volume of 20 μL. Compounds were dispensed, with 100 nL per well (0.5% final DMSO), from a concentration stock of 10 mM in 100% DMSO and with serial DMSO dilutions, using an Echo® 550 robot from the Access Labcyte platform (Labcyte) and based on the transfer of liquid by acoustic wave. Then, 19.5 μL of buffer is added, using a Multidrop Combi (Thermo Fisher Scientific). […] All HTRF reagents (donor and acceptor) were purchased from CisBio Bioassays and reconstituted according to the supplier protocols. The peptide was purchased from Genic Bio Synthetic. The BRD4(1) protein was produced and purified in the laboratory.
as §2, §3
Take `O=C1CCCc2cc(S(=O)(=O)C3CCC(C(=O)NCCc4ccccn4)CC3)ccc2N1` (centres unmarked) [Compound 7a]: the IC50 was determined as 7.11 µM.
As to `Cc1noc(C)c1CCNC(=O)C1CCC(CNS(=O)(=O)c2ccc3c(c2)CCCC(=O)N3)CC1` (centres unmarked) [Compound 9a], the IC50 amounted to 33.9 µM.

For the next test, the target named is T4, Brd2(BD1) (Homo sapiens, UniProt P25440).
T4 construct: GST tagged bromodomain proteins were purchased from BPS Bioscience; purchased BPS Bioscience
T4 sequence (P25440 74-180 limits assumed): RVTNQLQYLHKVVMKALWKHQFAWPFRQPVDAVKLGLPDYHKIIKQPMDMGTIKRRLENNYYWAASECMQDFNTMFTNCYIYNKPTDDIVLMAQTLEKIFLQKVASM
The experiment in a line: HTRF BET selectivity profile, Brd2(BD1). The note with it: read-out: Brd2(BD1) IC50. It counts as binding. The procedure: as §4, §2, §3
For `O=C1CCCc2cc(S(=O)(=O)C3CCC(C(=O)NCCc4ccccn4)CC3)ccc2N1` (centres unmarked) [Compound 7a], the IC50 came out at 16.1 µM.
On the same count and under the same terms, next, `Cc1noc(C)c1CCNC(=O)C1CCC(CNS(=O)(=O)c2ccc3c(c2)CCCC(=O)N3)CC1` (centres unmarked) [Compound 9a]: 10.3 µM.

The test is the same for the next values; noted with them: selectivity Brd2(BD1) vs Brd2(BD2), HTRF IC50.
Take `O=C1CCCc2cc(S(=O)(=O)C3CCC(C(=O)NCCc4ccccn4)CC3)ccc2N1` (centres unmarked) [Compound 7a]: the “Ratio 2-1 vs 2-2” value was 0.4.
Still for that read-out and setting: next, `Cc1noc(C)c1CCNC(=O)C1CCC(CNS(=O)(=O)c2ccc3c(c2)CCCC(=O)N3)CC1` (centres unmarked) [Compound 9a]: 3.

A further test concerns the target T5, Brd3(BD2) (Homo sapiens, UniProt Q15059).
T5 construct: GST tagged bromodomain proteins were purchased from BPS Bioscience; purchased BPS Bioscience
In words: HTRF BET selectivity profile, Brd3(BD2). Type of test: binding.
Conditions: not given
The procedure: as §1, §2, §3
For `O=C1CCCc2cc(S(=O)(=O)C3CCC(C(=O)NCCc4ccccn4)CC3)ccc2N1` (centres unmarked) [Compound 7a], it took 47.2 µM to reach half-maximal inhibition (IC50).

A further test has as its target T1, BRD4(BD1). In words: HTRF assay, BRD4(BD1)/histone peptide interaction. Type of test: binding. As to conditions: HTRF; mean of three experiments; NA = IC50 > 50 μM; read-out: Brd4(8D1) IC50. More on the design: made in house. As for the experimental part:
as §4, §2, §3
For `O=C1CCCc2cc(S(=O)(=O)C3CCC(C(=O)NCCc4ccccn4)CC3)ccc2N1` (centres unmarked) [Compound 7a], the IC50 was 9.55 µM.
`Cc1noc(C)c1CCNC(=O)C1CCC(CNS(=O)(=O)c2ccc3c(c2)CCCC(=O)N3)CC1` (centres unmarked) [Compound 9a]: the IC50 amounted to 15.7 µM.

The test is the same for the next values; noted with them: HTRF; triplicates; NA = IC50 > maximal concentration of compound used.
`O=C1CCCc2cc(S(=O)(=O)NCC3CCC(C(=O)NCCc4cccs4)CC3)ccc2N1` (single isomer, unassigned) [Compound 5c]: the 50% inhibitory concentration (IC50) was 7 µM.
The same measure, in the same setting: with `O=C1CCCc2cc(S(=O)(=O)C3CCC(C(=O)NCCc4ccccn4)CC3)ccc2N1` (centres unmarked) [Compound 7a] the figure was 9.6 µM.
On the same count and under the same terms, with `O=C1CCCc2cc(S(=O)(=O)NCC3CCC(C(=O)NCCc4ccccn4)CC3)ccc2N1` (centres unmarked) [Compound 7b] the figure was 19 µM; with `Cc1noc(C)c1CCNC(=O)C1CCC(CNS(=O)(=O)c2ccc3c(c2)CCCC(=O)N3)CC1` (centres unmarked) [Compound 9a], 16 µM.

Still in this test, the particulars now being: selectivity Brd4(BD1) vs Brd4(BD2), HTRF IC50.
Turning to `O=C1CCCc2cc(S(=O)(=O)C3CCC(C(=O)NCCc4ccccn4)CC3)ccc2N1` (centres unmarked) [Compound 7a], the “Ratio 4-1 vs 4-2” value came to 2.
On the same count and under the same terms, next, `Cc1noc(C)c1CCNC(=O)C1CCC(CNS(=O)(=O)c2ccc3c(c2)CCCC(=O)N3)CC1` (centres unmarked) [Compound 9a]: more than 3.

For a further test, the target named is T6, Brdt(BD1) (Homo sapiens, UniProt Q58F21).
T6 construct: GST tagged bromodomain proteins were purchased from BPS Bioscience; purchased BPS Bioscience
The experiment in a line: HTRF BET selectivity profile, Brdt(BD1).
Conditions: not given
Type of test: binding. As for the experimental part:
as §1, §2, §3
With `O=C1CCCc2cc(S(=O)(=O)C3CCC(C(=O)NCCc4ccccn4)CC3)ccc2N1` (centres unmarked) [Compound 7a], the IC50 is 9.16 µM.
In turn, `Cc1noc(C)c1CCNC(=O)C1CCC(CNS(=O)(=O)c2ccc3c(c2)CCCC(=O)N3)CC1` (centres unmarked) [Compound 9a] gave an IC50 of 9.17 µM.

The next test has as its target Brd3(BD1) (Homo sapiens, UniProt Q15059). In words: HTRF BET selectivity profile, Brd3(BD1). On the set-up: GST tagged bromodomain proteins were purchased from BPS Bioscience; purchased BPS Bioscience.
Conditions: not given
It counts as binding. As for the experimental part:
as §4, §2, §3
With `O=C1CCCc2cc(S(=O)(=O)C3CCC(C(=O)NCCc4ccccn4)CC3)ccc2N1` (centres unmarked) [Compound 7a], the IC50 amounted to 22.2 µM.
`Cc1noc(C)c1CCNC(=O)C1CCC(CNS(=O)(=O)c2ccc3c(c2)CCCC(=O)N3)CC1` (centres unmarked) [Compound 9a]: the IC50 is 5.05 µM.

Staying with this test, now noted: selectivity Brd3(BD1) vs Brd3(BD2), HTRF IC50.
With `O=C1CCCc2cc(S(=O)(=O)C3CCC(C(=O)NCCc4ccccn4)CC3)ccc2N1` (centres unmarked) [Compound 7a], the “Ratio 3-1 vs 3-2” value is reported as 2.
Same read-out and setting: next, `Cc1noc(C)c1CCNC(=O)C1CCC(CNS(=O)(=O)c2ccc3c(c2)CCCC(=O)N3)CC1` (centres unmarked) [Compound 9a]: more than 10.
